In US6613718B2, “Aryl ether derivatives and processes for their preparation and herbicidal and desiccant compositions containing them” (Ishihara Sangyo Kaisha, Ltd., priority 2001, dated 2003):

What was measured:
Assay type in all cases: in vivo
[1] = system: lambsquarters (Chenopodium album, CHEAL); assay: Post-emerge greenhouse herbicide activity screening, phytotoxicity rating
Outline: (§1)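 Plants grown in sandy loam pots received acetone solutions of compound by moving-nozzle track sprayer, 15–1000 g ai/ha. In post-emergence runs the foliage was at the 2-3 leaf stage and spray contained 0.25% v/v non-ionic surfactant. Damage was assessed visually after 14 days (0-100).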

[2] = system: redroot pigweed (Amaranthus retroflexus, AMARE); assay: as above
Outline: as §1

[3] = system: sicklepod (Cassia obtusifolia, CASOB); assay: as above
Outline: as §1

[4] = system: ivyleaf morningglory (Ipomoea hederacea, IPOHE); assay: as above; conditions: 14 days after application
Outline: as §1

[5] = system: common ragweed (Ambrosia artemisiifolia L., AMBEL); assay: as above
Outline: as §1

[6] = system: velvetleaf (Abutilon theophrasti, ABUTH); assay: as above; conditions: 14 days after application
Outline: as §1

[7] = system: johnsongrass (Sorghum halepense, SORHA); assay: as above; conditions: 14 days after application
Outline: as §1

[8] = system: barnyardgrass (Echinochloa crus-galli, ECHCG); assay: as above; conditions: 14 days after application
Outline: as §1

[9] = system: green foxtail (Setaria viridis, SETVI); assay: as above
Outline: as §1

[10] = system: large crabgrass (Digitaria sanguinalis, DIGSA); assay: as above; conditions: 14 days after application
Outline: as §1

[11] = system: field corn (Zea mays L., var. Dekalb 535, CORN); assay: Pre-emerge greenhouse screening, crop safety (phytotoxicity rating); conditions: 14 days after application
Outline: as §1

[12] = system: upland rice (Oryza sp., var.Tebonnet, RICE); assay: as above; conditions: 14 days after application
Outline: as §1

[13] = system: soybean (Glycine max L., var. Pella 86, SOY); assay: as above; conditions: 14 days after application
Outline: as §1

[14] = system: upland rice (Oryza sp., var.Tebonnet, RICE); assay: Post-emerge greenhouse screening, crop safety (phytotoxicity rating); conditions: 14 days after application
Outline: as §1

[15] = system: soybean (Glycine max L., var. Pella 86, SOY); assay: as above; conditions: 14 days after application
Outline: as §1

[16] = system: lambsquarters (Chenopodium album, CHEAL); assay: Pre-emerge greenhouse herbicide activity screening, phytotoxicity rating; conditions: 14 days after application
Outline: as §1

[17] = system: redroot pigweed (Amaranthus retroflexus, AMARE); assay: as above; conditions: 14 days after application
Outline: as §1

[18] = system: sicklepod (Cassia obtusifolia, CASOB); assay: as above; conditions: 14 days after application
Outline: as §1

[19] = system: ivyleaf morningglory (Ipomoea hederacea, IPOHE); assay: as above; conditions: 14 days after application
Outline: as §1

[20] = system: common ragweed (Ambrosia artemisiifolia L., AMBEL); assay: as above; conditions: 14 days after application
Outline: as §1

[21] = system: velvetleaf (Abutilon theophrasti, ABUTH); assay: as above; conditions: 14 days after application
Outline: as §1

[22] = system: johnsongrass (Sorghum halepense, SORHA); assay: as above; conditions: 14 days after application
Outline: as §1

[23] = system: barnyardgrass (Echinochloa crus-galli, ECHCG); assay: as above; conditions: 14 days after application
Outline: as §1

[24] = system: green foxtail (Setaria viridis, SETVI); assay: as above; conditions: 14 days after application
Outline: as §1

[25] = system: large crabgrass (Digitaria sanguinalis, DIGSA); assay: as above; conditions: 14 days after application
Outline: as §1

[26] = system: field corn (Zea mays L., var. Dekalb 535, CORN); assay: Post-emerge greenhouse screening, crop safety / corn selectivity (phytotoxicity rating); conditions: 14 days after application
Outline: as §1

[27] = 125 g ai/ha, 14 days after application
[28] = 250 g ai/ha, 14 days after application

Cn1c(=S)n(C)c(=O)n(-c2cc(Oc3ncccn3)c(Cl)cc2F)c1=O [Compound 2-1, 3-[4-Chloro-2-fluoro-5-(2-pyrimidinyloxy)phenyl]-5,6-dihydro-1,5-dimethyl-6-thioxo-1,3,5-triazine-2,4(1H,3H)-dione]
CHEAL phytotoxicity rating (0-100 scale) ([1]; 31.3 g ai/ha): 100 | CHEAL phytotoxicity rating (0-100 scale) ([1]; 62.5 g ai/ha): 100 | CHEAL phytotoxicity rating (0-100 scale) [1, 27]: 100 | CHEAL phytotoxicity rating (0-100 scale) [1, 28]: 100 | AMARE phytotoxicity rating (0-100 scale) ([2]; 31.3 g ai/ha): 100 | AMARE phytotoxicity rating (0-100 scale) ([2]; 62.5 g ai/ha): 100 | AMARE phytotoxicity rating (0-100 scale) [2, 27]: 100 | AMARE phytotoxicity rating (0-100 scale) [2, 28]: 100 | CASOB phytotoxicity rating (0-100 scale) ([3]; 31.3 g ai/ha): 60 | CASOB phytotoxicity rating (0-100 scale) ([3]; 62.5 g ai/ha): 60 | CASOB phytotoxicity rating (0-100 scale) [3, 27]: 65 | CASOB phytotoxicity rating (0-100 scale) [3, 28]: 75 | IPOHE phytotoxicity rating (0-100 scale) ([4]; 125 g ai/ha): 80 | IPOHE phytotoxicity rating (0-100 scale) ([4]; 250 g ai/ha): 99 | AMBEL phytotoxicity rating (0-100 scale) ([5]; 31.3 g ai/ha): 50 | AMBEL phytotoxicity rating (0-100 scale) ([5]; 62.5 g ai/ha): 50 | AMBEL phytotoxicity rating (0-100 scale) [5, 27]: 60 | AMBEL phytotoxicity rating (0-100 scale) [5, 28]: 65 | ABUTH phytotoxicity rating (0-100 scale) ([6]; 125 g ai/ha): 100 | ABUTH phytotoxicity rating (0-100 scale) ([6]; 250 g ai/ha): 100 | SORHA phytotoxicity rating (0-100 scale) ([7]; 125 g ai/ha): 60 | SORHA phytotoxicity rating (0-100 scale) ([7]; 250 g ai/ha): 70 | ECHCG phytotoxicity rating (0-100 scale) ([8]; 125 g ai/ha): 50 | ECHCG phytotoxicity rating (0-100 scale) ([8]; 250 g ai/ha): 80 | SETVI phytotoxicity rating (0-100 scale) ([9]; 31.3 g ai/ha): 0 | SETVI phytotoxicity rating (0-100 scale) ([9]; 62.5 g ai/ha): 60 | SETVI phytotoxicity rating (0-100 scale) [9, 27]: 70 | SETVI phytotoxicity rating (0-100 scale) [9, 28]: 80 | DIGSA phytotoxicity rating (0-100 scale) ([10]; 125 g ai/ha): 55 | DIGSA phytotoxicity rating (0-100 scale) ([10]; 250 g ai/ha): 55 | CORN crop damage, phytotoxicity rating (0-100 scale) ([11]; 125 g ai/ha): 50 | CORN crop damage, phytotoxicity rating (0-100 scale) ([11]; 250 g ai/ha): 65 | RICE crop damage, phytotoxicity rating (0-100 scale) ([12]; 125 g ai/ha): 99 | RICE crop damage, phytotoxicity rating (0-100 scale) ([12]; 250 g ai/ha): 99 | SOY crop damage, phytotoxicity rating (0-100 scale) ([13]; 125 g ai/ha): 90 | SOY crop damage, phytotoxicity rating (0-100 scale) ([13]; 250 g ai/ha): 100 | RICE crop damage, phytotoxicity rating (0-100 scale) ([14]; 125 g ai/ha): 15 | RICE crop damage, phytotoxicity rating (0-100 scale) ([14]; 250 g ai/ha): 40 | SOY crop damage, phytotoxicity rating (0-100 scale) ([15]; 125 g ai/ha): 50 | SOY crop damage, phytotoxicity rating (0-100 scale) ([15]; 250 g ai/ha): 65 | CHEAL phytotoxicity rating (0-100 scale) ([16]; 125 g ai/ha): 100 | CHEAL phytotoxicity rating (0-100 scale) ([16]; 250 g ai/ha): 100 | AMARE phytotoxicity rating (0-100 scale) ([17]; 125 g ai/ha): 100 | AMARE phytotoxicity rating (0-100 scale) ([17]; 250 g ai/ha): 100 | CASOB phytotoxicity rating (0-100 scale) ([18]; 125 g ai/ha): 100 | CASOB phytotoxicity rating (0-100 scale) ([18]; 250 g ai/ha): 100 | IPOHE phytotoxicity rating (0-100 scale) ([19]; 125 g ai/ha): 100 | IPOHE phytotoxicity rating (0-100 scale) ([19]; 250 g ai/ha): 100 | AMBEL phytotoxicity rating (0-100 scale) ([20]; 125 g ai/ha): 100 | AMBEL phytotoxicity rating (0-100 scale) ([20]; 250 g ai/ha): 100 | ABUTH phytotoxicity rating (0-100 scale) ([21]; 125 g ai/ha): 100 | ABUTH phytotoxicity rating (0-100 scale) ([21]; 250 g ai/ha): 100 | SORHA phytotoxicity rating (0-100 scale) ([22]; 125 g ai/ha): 100 | SORHA phytotoxicity rating (0-100 scale) ([22]; 250 g ai/ha): 100 | ECHCG phytotoxicity rating (0-100 scale) ([23]; 125 g ai/ha): 100 | ECHCG phytotoxicity rating (0-100 scale) ([23]; 250 g ai/ha): 100 | SETVI phytotoxicity rating (0-100 scale) ([24]; 125 g ai/ha): 100 | SETVI phytotoxicity rating (0-100 scale) ([24]; 250 g ai/ha): 100 | DIGSA phytotoxicity rating (0-100 scale) ([25]; 125 g ai/ha): 100 | DIGSA phytotoxicity rating (0-100 scale) ([25]; 250 g ai/ha): 100 | CORN crop damage, phytotoxicity rating (0-100 scale) ([26]; 125 g ai/ha): 0 | CORN crop damage, phytotoxicity rating (0-100 scale) ([26]; 250 g ai/ha): 5

Cn1c(=S)n(C)c(=O)n(-c2cc(Oc3ccccc3)c(Cl)cc2F)c1=O [Compound 2-16]
CHEAL phytotoxicity rating (0-100 scale) [1, 27]: 70 | CHEAL phytotoxicity rating (0-100 scale) [1, 28]: 70 | AMARE phytotoxicity rating (0-100 scale) [2, 27]: 80 | AMARE phytotoxicity rating (0-100 scale) [2, 28]: 80 | CASOB phytotoxicity rating (0-100 scale) [3, 27]: 0 | CASOB phytotoxicity rating (0-100 scale) [3, 28]: 0 | IPOHE phytotoxicity rating (0-100 scale) ([4]; 125 g ai/ha): 0 | IPOHE phytotoxicity rating (0-100 scale) ([4]; 250 g ai/ha): 0 | AMBEL phytotoxicity rating (0-100 scale) [5, 27]: 0 | AMBEL phytotoxicity rating (0-100 scale) [5, 28]: 0 | ABUTH phytotoxicity rating (0-100 scale) ([6]; 125 g ai/ha): 0 | ABUTH phytotoxicity rating (0-100 scale) ([6]; 250 g ai/ha): 40 | SORHA phytotoxicity rating (0-100 scale) ([7]; 125 g ai/ha): 0 | SORHA phytotoxicity rating (0-100 scale) ([7]; 250 g ai/ha): 0 | ECHCG phytotoxicity rating (0-100 scale) ([8]; 125 g ai/ha): 0 | ECHCG phytotoxicity rating (0-100 scale) ([8]; 250 g ai/ha): 35 | SETVI phytotoxicity rating (0-100 scale) [9, 27]: 50 | SETVI phytotoxicity rating (0-100 scale) [9, 28]: 50 | DIGSA phytotoxicity rating (0-100 scale) ([10]; 125 g ai/ha): 0 | DIGSA phytotoxicity rating (0-100 scale) ([10]; 250 g ai/ha): 0 | CORN crop damage, phytotoxicity rating (0-100 scale) ([11]; 125 g ai/ha): 0 | CORN crop damage, phytotoxicity rating (0-100 scale) ([11]; 250 g ai/ha): 5 | RICE crop damage, phytotoxicity rating (0-100 scale) ([12]; 125 g ai/ha): 0 | RICE crop damage, phytotoxicity rating (0-100 scale) ([12]; 250 g ai/ha): 0 | SOY crop damage, phytotoxicity rating (0-100 scale) ([13]; 125 g ai/ha): 0 | SOY crop damage, phytotoxicity rating (0-100 scale) ([13]; 250 g ai/ha): 0 | RICE crop damage, phytotoxicity rating (0-100 scale) ([14]; 125 g ai/ha): 0 | RICE crop damage, phytotoxicity rating (0-100 scale) ([14]; 250 g ai/ha): 0 | SOY crop damage, phytotoxicity rating (0-100 scale) ([15]; 125 g ai/ha): 0 | SOY crop damage, phytotoxicity rating (0-100 scale) ([15]; 250 g ai/ha): 0 | CHEAL phytotoxicity rating (0-100 scale) ([16]; 125 g ai/ha): 100 | CHEAL phytotoxicity rating (0-100 scale) ([16]; 250 g ai/ha): 100 | AMARE phytotoxicity rating (0-100 scale) ([17]; 125 g ai/ha): 99 | AMARE phytotoxicity rating (0-100 scale) ([17]; 250 g ai/ha): 100 | CASOB phytotoxicity rating (0-100 scale) ([18]; 125 g ai/ha): 20 | CASOB phytotoxicity rating (0-100 scale) ([18]; 250 g ai/ha): 35 | IPOHE phytotoxicity rating (0-100 scale) ([19]; 125 g ai/ha): 0 | IPOHE phytotoxicity rating (0-100 scale) ([19]; 250 g ai/ha): 10 | AMBEL phytotoxicity rating (0-100 scale) ([20]; 125 g ai/ha): 50 | AMBEL phytotoxicity rating (0-100 scale) ([20]; 250 g ai/ha): 55 | ABUTH phytotoxicity rating (0-100 scale) ([21]; 125 g ai/ha): 55 | ABUTH phytotoxicity rating (0-100 scale) ([21]; 250 g ai/ha): 60 | SORHA phytotoxicity rating (0-100 scale) ([22]; 125 g ai/ha): 35 | SORHA phytotoxicity rating (0-100 scale) ([22]; 250 g ai/ha): 75 | ECHCG phytotoxicity rating (0-100 scale) ([23]; 125 g ai/ha): 35 | ECHCG phytotoxicity rating (0-100 scale) ([23]; 250 g ai/ha): 60 | SETVI phytotoxicity rating (0-100 scale) ([24]; 125 g ai/ha): 60 | SETVI phytotoxicity rating (0-100 scale) ([24]; 250 g ai/ha): 95 | DIGSA phytotoxicity rating (0-100 scale) ([25]; 125 g ai/ha): 75 | DIGSA phytotoxicity rating (0-100 scale) ([25]; 250 g ai/ha): 80 | CORN crop damage, phytotoxicity rating (0-100 scale) ([26]; 125 g ai/ha): 0 | CORN crop damage, phytotoxicity rating (0-100 scale) ([26]; 250 g ai/ha): 0
